Laboratory results as given in patent publication US9233989B2, “Sila analogs of oxazolidinone derivatives and synthesis thereof” (Council of Scientific & Industrial Research, priority 2011, dated 2016).
Converted amounts (≈) assume the structure as drawn.

Experiments:
[1] = tested on: E.faecium 134 VRE; experiment: MIC by microbroth dilution method; format: cell-based
[2] = tested on: MRSA DB 00026; experiment: MIC by microbroth dilution method; format: cell-based, S. aureus
[3] = tested on: MRSE ATCC 35984; experiment: MIC by microbroth dilution method; format: cell-based, S. epidermidis
[4] = tested on: S.aureus2 (PVL + ve); format: cell-based, S. aureus
[5] = tested on: MRSE ATCC 35983; experiment: MIC by microbroth dilution method; format: cell-based, S. epidermidis
[6] = tested on: E.faecium 06076 VRE; experiment: MIC by microbroth dilution method; format: cell-based
[7] = tested on: E.faecalis ATCC 51299(VRE&HLAR); experiment: MIC by microbroth dilution method; format: cell-based
[8] = tested on: MRSA ATCC 43300; experiment: MIC by microbroth dilution method; format: cell-based, S. aureus
[9] = tested on: MRSA ATCC BAA 39; experiment: MIC by microbroth dilution method; format: cell-based, S. aureus
[10] = tested on: E.faecium ATCC 3567; experiment: MIC by microbroth dilution method; format: cell-based
[11] = tested on: S.aureus ATCC Newman 25904; experiment: MIC by microbroth dilution method; format: cell-based
[12] = tested on: S.aureus ATCC 29213; experiment: MIC by microbroth dilution method; format: cell-based
[13] = tested on: E.faecium 6A VRE; experiment: MIC by microbroth dilution method; format: cell-based
[14] = tested on: S.epidermidis ATCC 14990; experiment: MIC by microbroth dilution method; format: cell-based
[15] = tested on: E.faecalis ATCC 19433; experiment: MIC by microbroth dilution method; format: cell-based
[16] = tested on: Mycobacterium tuberculosis H37Rv; experiment: Anti-TB activity, colorimetric resazurin microtiter assay; format: cell-based; details: for MIC: Mycobacterium tuberculosis, H37RV, read-out: MIC, Minimum Inhibitory Concentration (90%)
[17] = tested on: E.faecium ATCC 49224; experiment: MIC by microbroth dilution method; format: cell-based
[18] = tested on: S.aureus ATCC 49775 PVL + ve; format: cell-based
[19] = tested on: S.aureus ATCC 700699 Mu50; experiment: MIC by microbroth dilution method; format: cell-based
[20] = tested on: E.faecalis ATCC 29212; experiment: MIC by microbroth dilution method; format: cell-based
[21] = tested on: S.epidermis St 358; experiment: MIC by microbroth dilution method; format: cell-based, S. epidermidis
[22] = tested on: MRSA 0-2657; experiment: MIC by microbroth dilution method; format: cell-based, S. aureus
[23] = tested on: E.coli 7632; experiment: MIC by microbroth dilution method; format: cell-based
[24] = tested on: S.epidermidis ATCC 12228; experiment: MIC by microbroth dilution method; format: cell-based
[25] = tested on: E.faecium ATCC 35667; experiment: MIC by microbroth dilution method; format: cell-based
[26] = tested on: S.aureus 13709 LNZ mutant; format: cell-based
[27] = tested on: MRSA 252 BAA 1720; experiment: MIC by microbroth dilution method; format: cell-based, S. aureus
[28] = tested on: S.aureus ATCC 13709 Smith; experiment: MIC by microbroth dilution method; format: cell-based
[29] = tested on: E.faecium ATCC 19434; experiment: MIC by microbroth dilution method; format: cell-based
[30] = tested on: E.faecalis SP 346 VRE; experiment: MIC by microbroth dilution method; format: cell-based
[31] = tested on: MRSA 562; experiment: MIC by microbroth dilution method; format: cell-based, S. aureus
[32] = tested on: S.aureus DB00026; experiment: MIC by microbroth dilution method; format: cell-based

Compound | MIC [1] [µg/mL] | MIC [2] [µg/mL] | MIC [3] [µg/mL] | MIC [4] [µg/mL] | MIC [5] [µg/mL] | MIC [6] [µg/mL] | MIC [7] [µg/mL] | MIC [8] [µg/mL] | MIC [9] [µg/mL] | MIC [10] [µg/mL] | MIC [11] [µg/mL] | MIC [12] [µg/mL] | MIC [13] [µg/mL] | MIC [14] [µg/mL] | MIC [15] [µg/mL] | MIC [17] [µg/mL] | MIC [18] [µg/mL] | MIC [19] [µg/mL] | MIC [20] [µg/mL] | MIC [21] [µg/mL] | further results
CCC(=O)NC[C@H]1CN(c2cc(F)c(N3CC[Si](C)(C)CC3)c(F)c2)C(=O)O1 [NDS-10056, (S)—N-((3-(4-(4,4-dimethyl-1,4-azasilinan-1-yl)-3,5-difluorophenyl)-2-oxooxazolidin-5-yl)methyl)propionamide] | 32 (≈ 77.8 µM) | 32 (≈ 77.8 µM) | 32 (≈ 77.8 µM) | 8 (≈ 19.4 µM) | 32 (≈ 77.8 µM) | > 32 | 8 (≈ 19.4 µM) | 16 (≈ 38.9 µM) | 32 (≈ 77.8 µM) | 32 (≈ 77.8 µM) | 16 (≈ 38.9 µM) | > 32 | 8 (≈ 19.4 µM) | 16 (≈ 38.9 µM) | 32 (≈ 77.8 µM) | 32 (≈ 77.8 µM) | 32 (≈ 77.8 µM) | 16 (≈ 38.9 µM) | 32 (≈ 77.8 µM) | 32 (≈ 77.8 µM) | MIC [16]: 50 µg/mL (≈ 121 µM); MIC [22]: 16 µg/mL (≈ 38.9 µM); MIC [23]: > 32 µg/mL; MIC [24]: 8 µg/mL (≈ 19.4 µM); MIC [25]: 32 µg/mL (≈ 77.8 µM); MIC [26]: > 32 µg/mL; MIC [27]: 32 µg/mL (≈ 77.8 µM); MIC [28]: > 32 µg/mL; MIC [29]: 32 µg/mL (≈ 77.8 µM); MIC [30]: 16 µg/mL (≈ 38.9 µM); MIC [31]: 8 µg/mL (≈ 19.4 µM); MIC [32]: > 32 µg/mL
CC(=O)NCC1CN(c2ccc(N3CC[Si](C)(C)CC3)c(F)c2)C(=O)O1 (centres unmarked) [NDS-10026, N-((3-(4-(4,4-dimethyl-1,4-azasilinan-1-yl)-3-fluorophenyl)-2-oxooxazolidin-5-yl)methy)acetamide] | 16 (≈ 42.2 µM) | > 16 | 16 (≈ 42.2 µM) | 32 (≈ 84.3 µM) | 16 (≈ 42.2 µM) | > 16 | 16 (≈ 42.2 µM) | 32 (≈ 84.3 µM) | 16 (≈ 42.2 µM) | > 16 | 32 (≈ 84.3 µM) | 16 (≈ 42.2 µM) | 16 (≈ 42.2 µM) | 16 (≈ 42.2 µM) | > 16 | 8 (≈ 21.1 µM) | > 16 | 16 (≈ 42.2 µM) | > 16 | > 16 | MIC, Minimum Inhibitory Concentration (90%) ([16]; inhibition of Mycobacterium tuberculosis H37Rv growth, 7H9-OADC media, 37° C., visual readout): 50 µg/mL (≈ 132 µM); MIC [22]: 16 µg/mL (≈ 42.2 µM); MIC [23]: > 32 µg/mL; MIC [24]: 16 µg/mL (≈ 42.2 µM); MIC [25]: 8 µg/mL (≈ 21.1 µM); MIC [26]: > 16 µg/mL; MIC [27]: 32 µg/mL (≈ 84.3 µM); MIC [28]: > 16 µg/mL; MIC [29]: > 16 µg/mL; MIC [30]: > 16 µg/mL; MIC [31]: 16 µg/mL (≈ 42.2 µM); MIC [32]: 32 µg/mL (≈ 84.3 µM)
C[Si]1(c2ccccc2)CCN(c2c(F)cc(N3C[C@H](CN)OC3=O)cc2F)CC1 [NDS-10070, (S)-5-(aminomethyl)-3-(3,5-difluoro-4-(4-methyl-4-phenyl-1,4-azasilinan-1-yl)phenyl)oxazolidin-2-one] | > 32 | > 32 | 32 (≈ 76.6 µM) | > 32 | > 32 | > 32 | 32 (≈ 76.6 µM) | > 32 | > 32 | > 32 | > 32 | > 32 | > 32 | > 32 | 32 (≈ 76.6 µM) | 32 (≈ 76.6 µM) | > 32 | > 32 | 32 (≈ 76.6 µM) | > 32 | MIC [16]: 50 µg/mL (≈ 120 µM); MIC [22]: > 32 µg/mL; MIC [23]: 32 µg/mL (≈ 76.6 µM); MIC [24]: > 32 µg/mL; MIC [25]: 32 µg/mL (≈ 76.6 µM); MIC [26]: > 32 µg/mL; MIC [27]: > 32 µg/mL; MIC [28]: > 32 µg/mL; MIC [29]: 32 µg/mL (≈ 76.6 µM); MIC [30]: > 32 µg/mL; MIC [31]: 32 µg/mL (≈ 76.6 µM); MIC [32]: > 32 µg/mL
C[Si]1(C)CCN(c2ccc(N3C[C@H](CN)OC3=O)cc2F)CC1 [NDS-10057, (S)-5-(aminomethyl)-3-(4-(4,4-dimethyl-1,4-azasilinan-1-yl)-3-fluorophenyl)oxazolidin-2-one] | 32 (≈ 94.8 µM) | > 32 | 32 (≈ 94.8 µM) | > 32 | > 32 | > 32 | 16 (≈ 47.4 µM) | > 32 | > 32 | > 32 | > 32 | > 32 | > 32 | > 32 | 32 (≈ 94.8 µM) | 32 (≈ 94.8 µM) | > 32 | > 32 | > 32 | > 32 | MIC [16]: 25 µg/mL (≈ 74.1 µM); MIC [22]: > 32 µg/mL; MIC [23]: 32 µg/mL (≈ 94.8 µM); MIC [24]: > 32 µg/mL; MIC [25]: 32 µg/mL (≈ 94.8 µM); MIC [26]: > 32 µg/mL; MIC [27]: > 32 µg/mL; MIC [28]: > 32 µg/mL; MIC [29]: 32 µg/mL (≈ 94.8 µM); MIC [30]: > 32 µg/mL; MIC [31]: > 32 µg/mL; MIC [32]: > 32 µg/mL
C[Si]1(C)CCN(c2c(F)cc(N3C[C@H](Cn4ccnn4)OC3=O)cc2F)CC1 [NDS-10058, (R)-5-((1H-1,2,3-triazol-1-yl)methyl)-3-(4-(4,4-dimethyl-1,4-azasilinan-1-yl)-3,5-difluorophenyl)oxazolidin-2-one] | 4 (≈ 9.82 µM) | > 32 | 32 (≈ 78.5 µM) | 32 (≈ 78.5 µM) | 16 (≈ 39.3 µM) | 32 (≈ 78.5 µM) | 32 (≈ 78.5 µM) | > 32 | > 32 | > 32 | 32 (≈ 78.5 µM) | > 32 | 16 (≈ 39.3 µM) | > 32 | 32 (≈ 78.5 µM) | > 32 | 32 (≈ 78.5 µM) | > 32 | 32 (≈ 78.5 µM) | 32 (≈ 78.5 µM) | anti-tubercular activity (in words) ([16]; Mycobacterium tuberculosis H37Rv): good anti-tubercular activity; MIC [16]: 12.5 µg/mL (≈ 30.7 µM); MIC [22]: > 32 µg/mL; MIC [23]: 16 µg/mL (≈ 39.3 µM); MIC [24]: > 32 µg/mL; MIC [25]: > 32 µg/mL; MIC [26]: 32 µg/mL (≈ 78.5 µM); MIC [27]: > 32 µg/mL; MIC [28]: > 32 µg/mL; MIC [29]: 32 µg/mL (≈ 78.5 µM); MIC [30]: 32 µg/mL (≈ 78.5 µM); MIC [31]: > 32 µg/mL; MIC [32]: > 32 µg/mL
